US20040103452A1, “Inducible apomixis” (priority 2001, published 2004)

System: Arabidopsis thaliana Ler x transgenic WS (AtLTP1::AtSERK1) F1 plants
Assay: SSLP analysis of F2 progeny for apomictic plants after 2,4-D application to F1 flower buds
Format: in vivo
Conditions: flower buds dipped in 2 μM 2,4-D 1 to 2 days pre-anthesis, repeated twice
Description: Transgenic T3 Arabidopsis thaliana ecotype WS plants, i.e. transgenic plants in the third generation after transformation, that are homozygous for the AtLTP1::AtSERK1 construct are used as male donor to pollinate Arabidopsis thaliana ecotype Landsberg erecta (L r) plants. The flower buds of the F1 plants at stage 11 to 12 (Smyth et al., The Plant Cell 2: 755, 1990) approximately 1 to 2 days pre-anthesis are dipped in an aqueous solution containing 2 μM 2,4-D supplemented with 0.04% (v/v) Triton X-100 as a surfactant as described by Vivian-Smith et al., (Plant Physiol. 121: 437, 1999). The treatment is repeated twice in a two-day period and plants are left to set F2 seeds. In parallel a control cross between wild-type Ler female and wild-type WS male plant is made to obtain F1 plants. Those F1 plants are designated as wild-type F1 plants and they are analysed in the same way as the transgenic F1 plants except that they are not auxin treated.
The F2 seeds are grown into seedlings and a few rosette leaves from each plant are used for DNA extraction as described by Ponce et al., Mol. Gen. Genet. 261: 408, 1999. Simple Sequence Length Polymorphism (SSLP) analysis is carried out by simultaneous amplification of 11 SSLP markers (see Table 1) using multiplex PCR with fluorescently labeled primers as described by Ponce et al. supra. […]

SMILES: O=C(O)COc1ccc(Cl)cc1Cl [2, 4 D, 2,4-dichlorophenoxyacetic acid]
- Plants h t rozygous for 11 SSLP markers Observed (AtLTP::AtSERK1 cross No 14 (line with lower SERK1 level), 144 F2 plants analyzed): 0
- Plants h t rozygous for 11 SSLP markers Observed (AtLTP::AtSERK1 cross No 15, 175 F2 plants analyzed): 2
